One data set relates to H5N1 influenza virus. Format: in vivo, BALB/c mice. The conditions noted are these: 1×LD50 dose of H5N1; nasal administration, 5 doses; PB2-39 2.5 mg/kg, zanamivir 20 μl of 2.5 mg/ml.
The test system of a further data set is H7N9 virus. Format: in vivo, BALB/c mice. The conditions noted are these: 1×LD80 dose of H7N9; nasal administration, 5 doses; PB2-39 2.5 mg/kg, zanamivir 20 μl of 2.5 mg/ml.
In another data set the test system is H1N1 virus. Description: in vivo antiviral effect in mice infected with H1N1. The conditions noted are these: for survival rate: nasal administration.
Data set [1] relates to influenza virus. Description: microbe, parasite or virus in culture. The data set is classed as cell-based. The conditions noted are these: for IC50: unidentified influenza virus; for Selectivity Index: CC50 divided by IC50.
The next data set concerns influenza H1N1 virus. The data set is classed as cell-based, influenza virus A.
The test system of data set [2] is influenza viruses H1N1; H3N2; H5N1; H7N7; H7N9; H9N2. The data set is classed as cell-based, influenza virus A. Conditions: 20, 5, 1.25, 0.31 μM; 24 h after inoculation; MOI 0.002; RT-qPCR. On the technique in general: Real-time PCR tracks product formation cycle by cycle.
A further data set in a line: in vitro. The conditions noted are these: dog.
Data set [3] relates to influenza virus. Description: lung viral load and histopathology in infected mice (PB2-39 study). Conditions: fourth day following inoculation.
The next data set is described as follows: water-solubility. Format: physicochemical.
The mark [4] stands for this setting: 1×LD60 dose of H1N1, PB2-19 1 mg/kg body weight.
[5] abbreviates: 5×LD50 dose of H1N1, 5 doses from 6 h after inoculation, PB2-39 2.5 mg/kg, zanamivir 20 μl of 2.5 mg/ml.
Setting [6] is: 1×LD60 dose of H1N1, PB2-19 1 mg/kg.

This note sets out measurements from US10792275B2 (priority 2016, dated 2020).

Regarding `CC(=O)N[C@H]1[C@H]([C@H](O)[C@H](O)CO)OC(C(=O)O)=C[C@@H]1N=C(N)N` [zanamivir, reference compound], the survival rate in the data set on H5N1 influenza virus, in the data set with H7N9 virus, in the data set with H1N1 virus (setting [4]) and with H1N1 virus (setting [5]) was 100% throughout.
Consider `O=c1oc2ccccc2c(O)c1C1c2c(c3ccccc3oc2=O)Oc2c1c(=O)oc1ccccc21` [PB2-39, 7-(4-hydroxy-2-oxo-2H-chromen-3-yl)-6H,7H,8Hchromeno[3,4′:5,6]pyrano[3,2-c]chromene-6,8-dione], for which the IC50 (in general, the midpoint of a concentration-inhibition curve) in the data set on influenza virus [1] is 1.22 ± 0.23 µM. The “reduction of the viral titer of supernatant” value in the data set with influenza H1N1 virus is 100-1000 times. Moreover, in data set [2], the “inhibition of replication of tested influenza strains” value is “inhibited the replication of all the tested influenza strains in a dose-dependent manner”. Besides, the survival rate with H5N1 influenza virus, in the data set on H7N9 virus and with H1N1 virus (setting [5]) was 100% each time. Moreover, in “in vitro”, the CC50 is more than 1000 µM. Also, the “amounts of viruses in lung tissues” value with influenza virus [3] (plaque assay, PB2-39 2.5 mg/kg nasal) was “significantly reduced”. Also, in the data set with influenza virus [3] (lung tissues), the “histopathological examination: interstitial inflammatory cell infiltration and alveolar injury” value is recorded as “improvement”.
Regarding `Cc1cc(C(=O)Nc2ccc(I)cc2C(=O)O)ccc1[N+](=O)[O-]` [PB2-19, 5-iodo-2-[(3-methyl-4-nitrobenzoyl)amino]benzoic acid], in the data set with influenza virus [1], the “Selectivity Index” value is 273 and the IC50 was 0.55 ± 0.05 µM. In addition, the water-solubility result in “water-solubility” is “limited”. This molecule also registered a CC50 in the data set “in vitro” of 150 ± 10 µM. Besides, in the data set with H1N1 virus (setting [6]), the histopathological findings result is reported as “corroborated the ability of PB2-19 to provide in vivo anti-influenza effects” and the “viral proliferation in the lungs” value is given as “effectively reduce”. The survival rate in the data set on H1N1 virus (setting [4]) amounted to 100%.
Turning to `Cc1ccc(C(c2c(O)c3ccccc3oc2=O)c2c(O)c3ccccc3oc2=O)cc1` [PB2-35, 3,3′-[(4-methylphenyl)methylene]bis(4-hydroxy-2H-chromen-2-one)], in the data set on influenza virus [1], the “Selectivity Index” value worked out at 40 and the IC50 was found to be 1.24 ± 0.21 µM. The molecule also returned a CC50 in the data set “in vitro” of 50 ± 5 µM.
